Source: paper PMC10135567, “New Indole-3-Propionic Acid and 5-Methoxy-Indole Carboxylic Acid Derived Hydrazone Hybrids as Multifunctional Neuroprotectors” (Antioxidants, 2023)
“Also recorded” adds a separate entry of the source.

Legend:
[1] = MTT cell viability assay (cytotoxicity), SH-SY5Y; conditions: human, SH-SY5Y neuroblastoma cells
Procedure: Neuroblastoma cell line SH-SY5Y (94030304) was acquired from the European Collection of Cell Cultures (ECACC, Salisbury, UK). Cells were cultured in a medium prepared with RPMI basic media supplemented with 10% heat-inactivated FBS (fetal bovine serum), 2 mM L-glutamine, 1% antibiotics (penicillin/streptomycin), and incubated at 37 °C in a humidified atmosphere containing 5% of CO2. The culture’s medium was replaced at a time interval of 2–3 days.
Cell viability was assessed via the mitochondrial reductase-dependent reaction of (3-(4,5-dimethylthiazol-2-yl)- 2,5-diphenyl tetrazolium bromide (MTT, cat. no. 475989, Calbiochem, Merck KGaA, Darmstadt, Germany). The SH-SY5Y and bEnd3 cell lines were seeded in 96-well plates at a density of 0.7 × 10^4 (bEnd3) or 2 × 10^4 (SH-SY5Y) cells/well and allowed to adhere for 24 h at 37 °C, 5% CO2. Then, the cells were incubated with the compounds (1–500 μM) for a preset time (24 h). For the solvent, the control cells were treated with DMSO corresponding to the highest concentration of DMSO in the samples (0.5% DMSO) in order to exclude its cytotoxic effect on the cells. For each concentration, a set of at least 6 wells were used. After incubation, the solution from each well was exchanged with fresh culture medium (100 µL/well), containing the MTT reagent (0.5 mg/mL) and incubated for 3 h at 37 °C in a humidified atmosphere and 5% CO2. The obtained formazan crystals were dissolved in 100 µL/well of 5% formic acid in propan-2-ol solution (or DMSO). The absorbance was measured at 570 nm via multiplate reader Tecan Infinite F200 PRO (Tecan Trading AG., Männedorf, Switzerland) or Synergy 2 (BioTek Instruments, Inc., Highland Park, Winooski, VT, USA).
Both the SH-SY5Y and bEnd3 cells were treated with the test compounds in a concentration range from 1 to 500 µM for 24 h.

[2] = Fe(II)-induced lipid peroxidation assay (LP assay, TBARS); type: biochemical; conditions: 90 µM, lecithin 1 mg/mL, 0.1 mM FeCl2; lower = stronger antioxidant
Procedure: (§1) The lipid peroxidation assay and a modification of the deoxyribose-degradation assay were used. Two types of measurement compositions in phosphate buffer (PB–K2HPO4/KH2PO4, pH 7.4) were prepared for both tests: (i) samples, containing the biologically relevant molecules (lecithin emulsion or deoxyribose), iron, and the tested hydrazones at the concentrations indicated below the figures; and (ii) controls, in which the tested hydrazones were omitted. The data for the sample activity were presented as a percentage of the control measurement.
The thiobarbituric-acid reactive-substance colorimetric test was performed in a model system of Fe(II)-induced lipid peroxidation as an emulsion prepared from egg yolk phospholipids. Each sample contained 1 mg/mL of lecithin. LP was initiated using 0.1 mM FeCl2. After 30 min incubation at 37 °C, 0.5 mL of 2.8% trichloroacetic acid solution and 0.5 mL of 0.5% thiobarbituric acid solution were added, following a second incubation at 100 °C for 20 min. Centrifugation at 3000 rpm for 20 min at 4 °C was performed, and we determined the absorbance value of the supernatant at 532 nm via Shimadzu UV-1601 UV-VIS spectrophotometer.

[3] = Fe(II)-induced deoxyribose degradation assay; type: biochemical; conditions: 80 µM, 2-deoxyribose 0.5 mM, 0.1 mM FeCl2; for absorbance ratio, % of the controls (deoxyribose degradation): lower = stronger antioxidant
Procedure: as §1
The deoxyribose (0.5 mM) damage was induced by adding FeCl2 (0.1 mM). The measurement compositions were incubated at 37 °C for 30 min. The next step comprised adding 0.5 mL of 2.8% trichloroacetic acid and 0.5 mL of thiobarbituric acid. Then, the samples were heated in boiling water for 20 min, and their absorbance was estimated at 532 nm (characteristic band for the generated chromophore) via Shimadzu UV-1601 UV-vis spectrophotometer.

[4] = O-phenanthroline Fe(II) chelation test; type: physicochemical; conditions: 200 µM compound, FeCl2
Procedure: The Fe (II)-chelating activity of the tested hydrazones was determined by the O-phenanthroline method. A total of 1 mL sample solutions of 50 mM PB pH 7 contained 0.2 mM O-phenanthroline and 0.05 mM FeCl2 and 0.2 mM hydrazone. In the controls, the tested compounds were omitted. Absorbance was measured at 515 nm via GENESYS 50 UV-VIS spectrophotometer after incubation for 5 min at 37 °C. The data for the sample activity were presented as a percentage of the control measurement. Absorbance spectra of all the samples, the control, and the measurement compositions containing the tested hydrazones and Fe(II) at the concentrations used in the samples were measured.
To explain the results of both systems of Fe(II)-induced oxidative damage, we studied the potency of the tested compounds to chelate-iron (Fe(II)). This was studied by spectrophotometric determination of free iron (Fe(II)) using the ortho-phenanthroline test, as 1,10-phenantroline reacts rapidly with Fe(II) ions in weakly acidic media, generating an orange–red complex (ferroin) with characteristic absorbance spectra (molar absorptivity 1.10.104 (α = 0.20) at ~max 512 nm and a molar ratio 3:1 (R: Fe(II))). The generated complex was stable, and the bound Fe(II) was resistant to oxidation. Lower absorbance of the reaction mixture indicated higher Fe^2+-chelating activity.

[5] = test system: isolated rat-brain synaptosomes; assay: 6-OHDA-induced neurotoxicity in isolated rat synaptosomes, GSH level; type: cell-based; conditions: 10 µM pre-incubation 30 min, then 150 µM 6-OHDA 1 h
Procedure: This neurotoxicity model was based on the metabolism and auto-oxidation of 6-hydroxy dopamine responsible for the reactive oxygen species and quinones generation, ultimately leading to neurotoxicity and neurodegeneration. The experiment was performed by pre-incubation of the synaptosomes with 10 µM of the compounds for 30 min, followed by the addition of 150 µM 6-hydroxy dopamine for induction of neurotoxicity. After 1 h, they were centrifuged twice for 1 min at 15,000 × g. After the second wash, the precipitates were resolved with buffer B and glucose.

Row | Compound | IC50 at 24 h [1] [µM] | absorbance ratio sample/control (lipid peroxidation) [2] | absorbance ratio, % of the controls (deoxyribose degradation) [3] | absorbance at 515 nm compared to the controls (Fe(II) chelation) [4] | pro-oxidant effect above the controls (deoxyribose degradation) [3] | GSH level preserved, as compared to 6-OHDA [5] [%]
1 | COc1ccc(C=NNC(=O)c2cc3cc(OC)ccc3[nH]2)c(O)c1 [Compound 5e, N′-(2-Hydroxy-4-methoxybenzylidene)-5-methoxy-1H-indole-2-carbohydrazide] | 200 | about 45% | did not induce a modulating effect | statistically significant changes; also recorded: much higher absorbance values than the controls | – | –
2 | N′-(4-Hydroxy-2-methoxybenzylidene)-3-(1H-indol-3-yl)propanehydrazide [Compound 3e] | – | – | – | statistically significant changes; also recorded: much higher absorbance values than the controls | about 10% | –
3 | COc1ccc2[nH]c(C(=O)NN=Cc3cccc(O)c3O)cc2c1 [Compound 5a, N′-(2,3-Dihydroxybenzylidene)-5-methoxy-1H-indole-2-carbohydrazide] | 79.3 | – | about 50% | identical absorbance values, as compared to the controls | – | 40
4 | COc1ccc2[nH]c(C(=O)NN=Cc3ccc(O)cc3O)cc2c1 [Compound 5c, N′-(2,4-Dihydroxybenzylidene)-5-methoxy-1H-indole-2-carbohydrazide] | 73.9 | about 45% | did not induce a modulating effect | statistically significant changes | – | –
5 | COc1ccc2[nH]c(C(=O)NN=Cc3cc(OC)c(O)c(OC)c3)cc2c1 [Compound 5f, N′-(4-Hydroxy-3,5-dimethoxybenzylidene)-5-methoxy-1H-indole-2-carbohydrazide] | 287 | about 45% | – | statistically identical absorbance values at 515 nm, as compared to the controls | – | –
6 | COc1ccc2[nH]c(C(=O)NN=Cc3ccc(O)c(O)c3)cc2c1 [Compound 5b, N′-(3,4-Dihydroxybenzylidene)-5-methoxy-1H-indole-2-carbohydrazide] | 111 | – | – | statistically identical absorbance values at 515 nm, as compared to the controls | – | –
7 | COc1ccc2[nH]c(C(=O)NN=Cc3ccc(O)c(OC)c3)cc2c1 [Compound 5d, N′-(4-Hydroxy-3-methoxybenzylidene)-5-methoxy-1H-indole-2-carbohydrazide] | 98.2 | – | did not induce a modulating effect | statistically identical absorbance values at 515 nm, as compared to the controls | – | 40
8 | COc1ccc2[nH]cc(CCNC(C)=O)c2c1 [Melatonin] | > 500 | – | – | – | – | 90
9 | COc1cc(C=NNC(=O)CCc2c[nH]c3ccccc23)ccc1O [Compound 3d, N′-(4-Hydroxy-3-methoxybenzylidene)-3-(1H-indol-3-yl)propanehydrazide] | 156 | – | – | statistically identical absorbance values at 515 nm, as compared to the controls | about 10% | –
10 | COc1cc(C=NNC(=O)CCc2c[nH]c3ccccc23)cc(OC)c1O [Compound 3f, N′-(4-Hydroxy-3,5-dimethoxybenzylidene)-3-(1H-indol-3-yl)propanehydrazide] | > 500 | below 65% | – | statistically identical absorbance values at 515 nm, as compared to the controls | – | –
